Target: T1, Human M4 (Homo sapiens, UniProt P08173)
T1 construct: expressed in transfected cells; host or cells: CHO-K1 (ATCC), co-transfected with chimeric G protein Gqi5
T1 sequence (P08173 1-479): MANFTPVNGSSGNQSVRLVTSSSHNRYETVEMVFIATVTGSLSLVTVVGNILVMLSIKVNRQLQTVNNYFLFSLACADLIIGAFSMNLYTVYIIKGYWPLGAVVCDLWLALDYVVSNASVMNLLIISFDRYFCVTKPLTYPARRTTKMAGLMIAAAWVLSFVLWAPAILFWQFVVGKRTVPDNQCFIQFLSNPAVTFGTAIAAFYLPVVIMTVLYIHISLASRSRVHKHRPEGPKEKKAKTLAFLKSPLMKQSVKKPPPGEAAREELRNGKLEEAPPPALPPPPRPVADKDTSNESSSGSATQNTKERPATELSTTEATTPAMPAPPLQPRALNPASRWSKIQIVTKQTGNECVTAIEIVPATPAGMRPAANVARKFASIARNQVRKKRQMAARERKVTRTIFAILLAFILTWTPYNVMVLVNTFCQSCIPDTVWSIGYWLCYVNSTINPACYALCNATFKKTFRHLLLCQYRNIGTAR
Assay: mAChR M4 cell-based functional assay (calcium flux, antagonism of EC80 acetylcholine response)
Details: M4/Gqi5/CHO-K1 cells; for remaining activity at 30 µM / Human M4 Emin (% ACh maximum at 30 μM): % ACh maximum at 30 μM; for remaining activity at 30 µM: read-out: Human M4 Emin (% ACh maximum at 30 μM); for IC50: concentration-dependent decrease of the response elicited by an EC80 concentration of acetylcholine
Summary of the method: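 CHO-K1 cells stably expressing human M4 with chimeric Gqi5, Fluo-4 loaded; calcium flux read on FDSS. Compound (10-point, 1:3 series) added first, then EC20 acetylcholine at 143 s and EC80 at 268 s. IC50 from concentration-dependent decrease of EC80 response, four-parameter logistic fit.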

Compound | remaining activity at 30 µM | IC50 | Human M4 Emin (% ACh maximum at 30 μM)
[2H]C([2H])(C1CC(C)(C)OC(C)(C)C1)N1C[C@H]2C[C@H](Nc3ccc(-c4cccc(C(=O)NC)c4)nn3)C[C@H]2C1 [Compound A76, N-methyl-3-(6-(((3aR,5s,6aS)-2-((2,2,6,6-tetramethyltetrahydro-2H-pyran-4-yl)methyl-d2)octahydrocyclopenta[c]pyrrol-5-yl)amino)pyridazin-3-yl)benzamide] | 4% | 0.099 µM | 
[2H]C([2H])([C@H]1COCCO1)N1C[C@H]2C[C@H](Nc3ccc(-c4cccc(C(=O)NC)c4)nn3)C[C@H]2C1 [Compound A77, 3-(6-(((3aR,5s,6aS)-2-(((S)-1,4-dioxan-2-yl)methyl-d2)octahydrocyclopenta[c]pyrrol-5-yl)amino)pyridazin-3-yl)-N-methylbenzamide] | 4% | 0.045 µM | 
[2H]C([2H])([C@H]1CCCOC1)N1C[C@H]2C[C@H](Nc3ccc(-c4cccc(C(=O)NC)c4)nn3)C[C@H]2C1 [Compound A78, N-methyl-3-(6-(((3aR,5s,6aS)-2-(((R)-tetrahydro-2H-pyran-3-yl)methyl-d2)octahydrocyclopenta[c]pyrrol-5-yl)amino)pyridazin-3-yl)benzamide] | 8% | 0.57 µM | 
[2H]C([2H])([C@@H]1CCCOC1)N1C[C@H]2C[C@H](Nc3ccc(-c4cccc(C(=O)NC)c4)nn3)C[C@H]2C1 [Compound A79, N-methyl-3-(6-(((3aR,5s,6aS)-2-(((S)-tetrahydro-2H-pyran-3-yl)methyl-d2)octahydrocyclopenta[c]pyrrol-5-yl)amino)pyridazin-3-yl)benzamide] | 5% | 0.092 µM | 
[2H]C([2H])([C@H]1CCCCO1)N1C[C@H]2C[C@H](Nc3ccc(-c4cccc(C(=O)NC)c4)nn3)C[C@H]2C1 [Compound A81, N-methyl-3-(6-(((3aR,5s,6aS)-2-(((R)-tetrahydro-2H-pyran-2-yl)methyl-d2)octahydrocyclopenta[c]pyrrol-5-yl)amino)pyridazin-3-yl)benzamide] | 4% | 0.00041 µM | 
[2H]C1([2H])CC(C([2H])([2H])N2C[C@H]3C[C@H](Nc4ccc(-c5cc(F)cc(C(=O)NC)c5)nn4)C[C@H]3C2)CC([2H])([2H])O1 [Compound A82, 3-fluoro-N-methyl-5-(6-(((3aR,5s,6aS)-2-((tetrahydro-2H-pyran-4-yl-2,2,6,6-d4)methyl-d2)octahydrocyclopenta[c]pyrrol-5-yl)amino)pyridazin-3-yl)benzamide] | 5% | 0.029 µM | 
[2H]C([2H])(C1CCOC(C)(C)C1)N1C[C@H]2C[C@H](Nc3ccc(-c4cc(F)cc(C(=O)NC)c4)nn3)C[C@H]2C1 (stereo partly drawn) [Compound A83, 3-(6-(((3aR,5s,6aS)-2-((2,2-dimethyltetrahydro-2H-pyran-4-yl)methyl-d2)octahydrocyclopenta[c]pyrrol-5-yl)amino)pyridazin-3-yl)-5-fluoro-N-methylbenzamide] | 4% | 0.0027 µM | 
[2H]C([2H])([C@H]1CCCOC1)N1C[C@H]2C[C@H](Nc3ccc(-c4cc(F)cc(C(=O)NC)c4)nn3)C[C@H]2C1 [Compound A84, 3-fluoro-N-methyl-5-(6-(((3aR,5s,6aS)-2-(((R)-tetrahydro-2H-pyran-3-yl)methyl-d2)octahydrocyclopenta[c]pyrrol-5-yl)amino)pyridazin-3-yl)benzamide] | 6% | 0.34 µM | 
[2H]C([2H])([C@@H]1CCCOC1)N1C[C@H]2C[C@H](Nc3ccc(-c4cc(F)cc(C(=O)NC)c4)nn3)C[C@H]2C1 [Compound A85, 3-fluoro-N-methyl-5-(6-(((3aR,5s,6aS)-2-(((S)-tetrahydro-2H-pyran-3-yl)methyl-d2)octahydrocyclopenta[c]pyrrol-5-yl)amino)pyridazin-3-yl)benzamide] | 5% | 0.084 µM | 
[2H]C([2H])([C@@H]1CCCCO1)N1C[C@H]2C[C@H](Nc3ccc(-c4cc(F)cc(C(=O)NC)c4)nn3)C[C@H]2C1 [Compound A86, 3-fluoro-N-methyl-5-(6-(((3aR,5s,6aS)-2-(((S)-tetrahydro-2H-pyran-2-yl)methyl-d2)octahydrocyclopenta[c]pyrrol-5-yl)amino)pyridazin-3-yl)benzamide] | 4% | 0.0027 µM | 
[2H]C([2H])([C@H]1CCCCO1)N1C[C@H]2C[C@H](Nc3ccc(-c4cc(F)cc(C(=O)NC)c4)nn3)C[C@H]2C1 [Compound A87, 3-fluoro-N-methyl-5-(6-(((3aR,5s,6aS)-2-(((R)-tetrahydro-2H-pyran-2-yl)methyl-d2)octahydrocyclopenta[c]pyrrol-5-yl)amino)pyridazin-3-yl)benzamide] | 4% | 0.0009 µM | 
[2H]C([2H])(C1CCOCC1)N1C[C@H]2C[C@H](Nc3ccc(-c4ccccc4NC(C)=O)nn3)C[C@H]2C1 [Compound B2, N-(2-(6-(((3aR,5s,6aS)-2-((tetrahydro-2H-pyran-4-yl)methyl-d2)octahydrocyclopenta [c]pyrrol-5-yl)amino)pyridazin-3-yl)phenyl)acetamide] |  | 0.058 µM | 3%
[2H]C([2H])([2H])C(=O)Nc1ccccc1-c1ccc(N[C@H]2C[C@@H]3CN(CC4CCOCC4)C[C@@H]3C2)nn1 [Compound B3, N-(2-(6-(((3aR,5s,6aS)-2-((tetrahydro-2H-pyran-4-yl)methyl)octahydrocyclopenta [c]pyrrol-5-yl)amino)pyridazin-3-yl)phenyl) acetamide-2,2,2-d3] |  | 0.12 µM | 4%
[2H]C([2H])([2H])C(=O)Nc1ccccc1-c1ccc(N[C@H]2C[C@@H]3CN(C([2H])([2H])C4CCOCC4)C[C@@H]3C2)nn1 [Compound B4, N-(2-(6-(((3aR,5s,6aS)-2-((tetrahydro-2H-pyran-4-yl)methyl-d2)octahydrocyclopenta [c]pyrrol-5-yl)amino)pyridazin-3-yl)phenyl) acetamide-2,2,2-d3] |  | 0.12 µM | 4%
N-methyl-3-(6-(((3aR,5s,6aS)-2-(((S)- tetrahydro-2H-pyran-2-yl)methyl- d2)octahydrocyclopenta[c]pyrrol-5- yl)amino)pyridazin-3-yl)benzamide [Compound A80] |  | 0.0014 µM | 4%

Source: patent US20240228468A1, “N-(6-((OCTAHYDROCYCLOPENTA[C]PYRROL-5-YI)AMINO)PYRIDAZIN-3-YL)PHENYL)CARBOXAMIDE AND (6- ((OCTAHYDROCYCLOPENTA[C]PYRROL-5-YL)AMINO)PYRIDAZIN-3-YL)BENZAMIDE DERIVATIVES AS MACHR M4 ANTAGONISTS FOR THE TREATMENT OF NEURODEGENERATIVE DISORDERS” (Vanderbilt University, priority 2021, published 2024)
